The values that follow come from US12551499B2 (Atea Pharmaceuticals, Inc., priority 2020, dated 2026).

Like-named read-outs stand apart in the source and are kept apart here.

One data set deals with RSV. The note with it: RSV-infected HAE cells; read-out: in vitro EC90; cited from earlier work.
Data set [1] concerns human bronchial epithelial cells. The note with it: 10 μM.
Data set [2] relates to human nasal epithelial cells. The note with it: 10 μM.
Data set [3] can be described thus: Plasma PK in non-human primates after oral Compound 2A. The note with it: monkey plasma, oral Compound 2A 60 mg/kg then 30 mg/kg every 12 h, steady state.
The test system of the next data set is HCV. Conditions: HCV-infected subjects, up to 12 weeks; cited from earlier work.
A further data set concerns SARS-CoV-2 (WA1). Kind of data set: Virus yield reduction assay, SARS-CoV-2 in dNHBE / HAE cells. In kind it is cell-based. Here is the method:
The antiviral activity of Compound 1A was next evaluated against SARS-CoV-2 (WA1) using differentiated normal human bronchial epithelial (dNHBE; HAE (human airway epithelial) cells made to order by MatTek Corporation (Ashland, MA).
Cell Culture: dNHBE cells were grown on 6 mm mesh disks and arrived in kits with either 12- or 24-well transwell inserts. During transportation the tissues were stabilized on a sheet of agarose, which was removed upon receipt. One insert was estimated to consist of approximately 1.2×10^6 cells. Kits of cell inserts (EpiAirway™ AIR-100, AIR-112) originated from a single donor, #9831, a healthy, non-smoking person. The cells have unique properties in forming layers, the apical side of which is exposed only to air and that creates a mucin layer. Upon arrival, the cell transwell inserts were immediately transferred to individual wells of a 6-well plate according to manufacturer's instructions, and 1 mL of MatTek's proprietary culture medium (AIR-100-MM) was added to the basolateral side, whereas the apical side was exposed to a humidified 5% CO2 environment. Cells were cultured at 37° C. for one day before the start of the experiment. After the 24 hour equilibration period, the mucin layer, secreted from the apical side of the cells, was removed by washing with 400 μL pre-warmed 30 mM HEPES buffered saline solution 3×. Culture medium was replenished following the wash steps.
Viruses: Virus was diluted in AIR-100-MM medium before infection, yielding a multiplicity of infection (MOI) of approximately 0.0015 CCID50 per cell.
The cells were maintained at the air-liquid interface.
Determination of virus titers from each treated cell culture: Vero 76 cells were seeded in 96-well plates and grown overnight (37° C.) to confluence. Samples containing virus were diluted in 10-fold increments in infection medium and 200 μL of each dilution transferred into respective wells of a 96-well microtiter plate. Four microwells were used for each dilution to determine 50% viral endpoints. After 5 days of incubation, each well was scored positive for virus if any cytopathic effect (CPE) was observed as compared with the uninfected control and counts were confirmed for endpoint on days 6 and 7. […] The day 5 values were reported. Untreated, uninfected cells were used as the cell controls.
The antiviral activities of test compounds were evaluated against SARS-CoV-2 (USA-WA1/2020) using made to order human airway epithelial (HAE) cells.
Cell Culture: HAE cells were grown on 6 mm mesh disks and arrived in kits with either 12- or 24-well transwell inserts. During transportation the tissues were stabilized on a sheet of agarose, which was removed upon receipt. One insert was estimated to consist of approximately 1.2×10^6 cells. Kits of cell inserts (EpiAirway™ AIR-100 or AIR-112) originated from a single donor, #9831, a healthy, non-smoking person. The cells form polarized monolayers, the apical side of which is exposed to air and creates a mucin layer. Upon arrival, the cell transwell inserts were immediately transferred to individual wells of a 6-well plate according to the manufacturer's instructions, and 1 mL of MatTek's proprietary culture medium (AIR-100-MM) was added to the basolateral side, whereas the apical side was exposed to a humidified 5% CO2 environment. Cells were cultured at 37° C. in a humidified atmosphere containing 5% CO2 for one day before the start of the experiment. After the 24-h equilibration period, the mucin layer, secreted from the apical side of the cells, was removed by washing with 400 μL pre-warmed 30 mM HEPES buffered saline solution 3×. Culture medium was replenished following the wash steps.
Viruses: Virus was diluted in AIR-100-MM medium before infection to yield a MOI when added to cultures of approximately 0.0015 CCID50 per cell.
Select compounds of the present invention were tested in a SARS-CoV-2 assay. […]

Data set [4] has as its system human airway epithelial (HAE) cells.
The nature of another data set: in vitro. Conditions: human.
Setting [5] is: Severe acute respiratory syndrome coronavirus 2, HAE, SARS-CoV-2 in HAE (dNHBE) cells, Table 11, read-out: VYR Assay EC90.
[6] abbreviates: Severe acute respiratory syndrome coronavirus 2, HAE, SARS-CoV-2, Table 11B, read-out: VYR Assay EC90.

In the case of `Nc1ccn([C@@H]2O[C@@](CO)(CCl)[C@@H](O)[C@H]2F)c(=O)n1` [ALS-8112, reference compound], the EC90 (commonly the concentration needed for an effect of 90%) with RSV was 1.3 to 2.7 µM. The “ratio of triphosphate from Compound 1A vs. comparator” value in data set [1] (8 h) worked out at 2; in data set [1] (15 h), 5; in data set [2] (8 h), 1; in data set [2] (15 h), 3.

Regarding `C[C@@]1(F)[C@H](O)[C@@H](CO)O[C@H]1n1cnc2c(=O)[nH]c(N)nc21` [Compound 1-7, 2-amino-9-((2R,3R,4R,5R)-3-fluoro-4-hydroxy-5-(hydroxymethyl)-3-methyltetrahydrofuran-2-yl)-1,9-dihydro-6H-purin-6-one], in data set [3], the Cmax (in general, the maximum level reached in the sampled fluid or tissue) came to 160 nM and the Tmax (as a rule, the time at which the peak concentration occurs) came out at 2 h.

`CNc1nc(N)nc2c1ncn2[C@@H]1O[C@H](CO[P@@](=O)(N[C@@H](C)C(=O)OC(C)C)Oc2ccccc2)[C@@H](O)[C@@]1(C)F` [Compound 2A]: in the data set with HCV, the safety and tolerability entry is “safe and well-tolerated”.

With `[2H]C([2H])([2H])[C@@]1(F)[C@H](O)[C@@H](CO[P@@](=O)(N[C@@H](C)C(=O)OC(C)C)Oc2ccccc2)O[C@H]1n1cnc2c(NC)nc(N)nc21` [Compound 5, Isopropyl ((S)-(((2R,3R,4R,5R)-5-(2-amino-6-(methylamino)-9H-purin-9-yl)-4-fluoro-3-hydroxy-4-methyltetrahydrofuran-2-yl)methoxy)(phenoxy)phosphoryl)-L-alaninate], the 90% effect concentration (EC90) in the data set with SARS-CoV-2 (WA1) (setting [5]) stood at 0.31 µM. For the same molecule, the “VYR Assay CC50” value in data set [4] was “no visual tox”.

As to `CNc1nc(N)nc2c1ncn2[C@@H]1O[C@H](CO[P@@](=O)(N[C@@H](C)C(=O)OC(C)C)Oc2ccccc2)[C@@H](O)[C@]1(F)CF` [Compound 6, Isopropyl ((S)-(((2R,3R,4R,5R)-5-(2-amino-6-(methylamino)-9H-purin-9-yl)-4-fluoro-4-(fluoromethyl)-3-hydroxytetrahydrofuran-2-yl)methoxy)(phenoxy)phosphoryl)-L-alaninate], the EC90 in the data set on SARS-CoV-2 (WA1) (setting [5]) came to 1.8 µM. For the same molecule, the “VYR Assay CC50” value in data set [4] is on record as “no visual tox”.

Regarding `C#C[C@@]1(F)[C@H](O)[C@@H](CO[P@@](=O)(N[C@@H](C)C(=O)OC(C)C)Oc2ccccc2)O[C@H]1n1cnc2c(NC)nc(N)nc21` [Compound 7, Isopropyl ((S)-(((2R,3R,4R,5R)-5-(2-amino-6-(methylamino)-9H-purin-9-yl)-4-ethynyl-4-fluoro-3-hydroxytetrahydrofuran-2-yl)methoxy)(phenoxy)phosphoryl)-L-alaninate], in the data set with SARS-CoV-2 (WA1) (setting [5]), the EC90 was 3.2 µM. Besides, the “VYR Assay CC50” value in data set [4] is on record as “no visual tox”.

Regarding `C=C[C@@]1(F)[C@H](O)[C@@H](CO[P@@](=O)(N[C@@H](C)C(=O)OC(C)C)Oc2ccccc2)O[C@H]1n1cnc2c(NC)nc(N)nc21` [Compound 8, Isopropyl ((S)-(((2R,3R,4R,5R)-5-(2-amino-6-(methylamino)-9H-purin-9-yl)-4-fluoro-3-hydroxy-4-vinyltetrahydrofuran-2-yl)methoxy)(phenoxy)phosphoryl)-L-alaninate], the concentration for an effect of 90% (EC90) with SARS-CoV-2 (WA1) (setting [5]) is 6.4 µM. In addition, the “VYR Assay CC50” value in data set [4] is on record as “no visual tox”.

With `CNc1nc(N)nc2c1ncn2[C@@H]1O[C@H](CO[P@@](=O)(N[C@@H](C)C(=O)OC(C)C)Oc2ccccc2)[C@@H](O)[C@]1(F)CO` [Compound 9, Isopropyl ((S)-(((2R,3R,4R,5R)-5-(2-amino-6-(methylamino)-9H-purin-9-yl)-4-fluoro-3-hydroxy-4-(hydroxymethyl)tetrahydrofuran-2-yl)methoxy)(phenoxy)phosphoryl)-L-alaninate], the EC90 with SARS-CoV-2 (WA1) (setting [5]) was found to be 8.5 µM. Besides, the “VYR Assay CC50” value in data set [4] is recorded as “no visual tox”.

Take `CC(C)OC(=O)[C@H](C)NP(=O)(OC[C@H]1O[C@@H](n2cnc3c(NC4CC4)nc(N)nc32)[C@@](F)(CO)[C@@H]1O)Oc1ccccc1` (stereo partly drawn) [Compound 10, Isopropyl ((((2R,3R,4R,5R)-5-(2-amino-6-(cyclopropylamino)-9H-purin-9-yl)-4-fluoro-3-hydroxy-4-(hydroxymethyl)tetrahydrofuran-2-yl)methoxy)(phenoxy)phosphoryl)-L-alaninate]: the EC90 in the data set with SARS-CoV-2 (WA1) (setting [5]) was determined as 5.3 µM. In addition, in data set [4], the “VYR Assay CC50” value was “no visual tox”.

Take `CNc1nc(N)nc2c1ncn2[C@@H]1O[C@H](CO[P@@](=O)(N[C@@H](C)C(=O)OC(C)C)Oc2ccccc2)[C@@H](O)[C@]1(F)C(F)(F)F` [Compound 11A]: in the data set on SARS-CoV-2 (WA1) (Severe acute respiratory syndrome coronavirus 2, HAE, read-out: VYR Assay EC90, SARS-CoV-2 in HAE (dNHBE) cells, Table 11), the EC90 came out at 3.7 µM. In data set [4], the “VYR Assay CC50” value was “no visual tox”.

Regarding `Cc1nc2nccnc2n1[C@@H]1O[C@H](COP(=O)(N[C@@H](C)C(=O)OC(C)C)Oc2ccccc2)[C@@H](O)[C@]1(F)C(F)(F)F` (stereo partly drawn) [Compound 12], in the data set on SARS-CoV-2 (WA1) (setting [6]), the EC90 was determined as 1.5 µM.

For `Cc1ncc2ncn([C@@H]3O[C@H](COP(=O)(N[C@@H](C)C(=O)OC(C)C)Oc4ccccc4)[C@@H](O)[C@]3(F)C(F)(F)F)c2n1` (stereo partly drawn) [Compound 13], the EC90 with SARS-CoV-2 (WA1) (setting [6]) came out at 3.2 µM.

Consider `CC(C)OC(=O)[C@H](C)NP(=O)(OC[C@H]1O[C@@H](Oc2ncc(Br)nc2C(N)=O)[C@@](F)(C(F)(F)F)[C@@H]1O)Oc1ccccc1` (stereo partly drawn) [Compound 14], for which the 90% effect concentration (EC90) with SARS-CoV-2 (WA1) (setting [6]) stood at 0.57 µM.

Take `CC(C)OC(=O)[C@H](C)N[P@](=O)(OC[C@H]1O[C@@](C#N)(n2ncc3c(N)ncnc32)[C@H](F)[C@@H]1O)Oc1ccccc1` [Compound 15]: the EC90 in the data set on SARS-CoV-2 (WA1) (setting [6]) was 1.1 µM.

As to `O=c1nc(NO)ccn1[C@@H]1O[C@H](CO)[C@@H](O)[C@H]1O` [N^4-hydroxycytidine, reference compound], the “Selectivity Index (CC50/EC90)” value in the data set with SARS-CoV-2 (WA1) (SARS-CoV-2 in HAE, Table 5) is greater than 5.1. Besides, the EC90 in the data set with SARS-CoV-2 (WA1) (SARS-CoV-2 in HAE, footnotes f, g, h of Table 5, read-out: EC90, single replicates) came to 3.1 µM. Moreover, in the data set with SARS-CoV-2 (WA1) (SARS-CoV-2 in HAE, same experiment), the “potency relative to Compound 1A (times less)” value is on record as 8 times.

In the case of `CC(C)OC(=O)[C@H](C)N[P@](=O)(OC[C@H]1O[C@@H](n2ccc(=O)[nH]c2=O)[C@](C)(F)[C@@H]1O)Oc1ccccc1` [Sofosbuvir, reference compound], the EC90 in the data set on SARS-CoV-2 (WA1) (setting [5]) was greater than 19 µM. For the same molecule, the “VYR Assay CC50” value in data set [4] was “no visual tox”.

The molecule `CCN(CC)CCCC(C)Nc1ccnc2cc(Cl)ccc12` (stereo not drawn) [chloroquine] had a CC50 in “in vitro” of 21 µM.

The molecule `CCN(CCO)CCCC(C)Nc1ccnc2cc(Cl)ccc12` (stereo not drawn) [hydroxychloroquine] displayed a CC50 in “in vitro” of 26 µM.
